Broadly, the IC50 is the midpoint of a concentration-inhibition curve.

Drawing on US20260062412A1, “NITROGEN-CONTAINING HETEROCYCLIC COMPOUND HAVING MYT1 INHIBITORY ACTIVITY” (CHUGAI SEIYAKU KABUSHIKI KAISHA, priority 2023, published 2026), this text covers IC50 for 35 compounds.

This test concerns the target MYT1 protein (Homo sapiens (Human), UniProt Q99640). Kind of test: Test for binding to ATP binding site of MYT1 (Kinase Tracer 178 / Eu-Anti-GST antibody TR-FRET). Conditions: ATP binding site of MYT1, 30 minutes at room temperature. (In general: In TR-FRET formats the signal depends on donor and acceptor labels being close together.)

SMILES strings stand for the structures.

MYT1 protein, sequence (Q99640 whole entry): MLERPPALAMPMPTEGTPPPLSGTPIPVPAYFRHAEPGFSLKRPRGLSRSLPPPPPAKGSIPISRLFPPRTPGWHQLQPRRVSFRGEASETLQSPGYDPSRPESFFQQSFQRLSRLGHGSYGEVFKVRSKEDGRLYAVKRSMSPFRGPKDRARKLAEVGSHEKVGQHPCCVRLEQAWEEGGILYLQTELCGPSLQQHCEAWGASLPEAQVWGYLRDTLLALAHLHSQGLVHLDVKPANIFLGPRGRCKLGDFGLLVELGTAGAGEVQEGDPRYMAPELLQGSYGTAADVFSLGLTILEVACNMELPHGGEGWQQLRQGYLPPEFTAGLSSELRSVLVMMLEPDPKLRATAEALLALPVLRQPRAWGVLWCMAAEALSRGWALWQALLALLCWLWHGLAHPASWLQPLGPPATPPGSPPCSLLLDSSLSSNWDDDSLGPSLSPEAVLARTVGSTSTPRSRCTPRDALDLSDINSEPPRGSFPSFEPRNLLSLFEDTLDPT

For `Nc1c(-c2ccc(F)c3[nH]ncc23)c2cc(C3CC(F)(F)C3)c3ncccc3c2[nH]c1=O` [Compound C164, 3-Amino-6-(3,3-difluorocyclobutyl)-4-(7-fluoro-1H-indazol-4-yl)-1H-1,7-phenanthrolin-2-one], the IC50 came out at 8.6 nM.

Take `Nc1c(-c2ccc(F)c3[nH]ncc23)c2cc(CC(F)(F)F)c3ncccc3c2[nH]c1=O` [Compound C165, 3-Amino-4-(7-fluoro-1H-indazol-4-yl)-6-(2,2,2-trifluoroethyl)-1H-1,7-phenanthrolin-2-one]: the 50% inhibitory concentration (IC50) worked out at 7.1 nM. This IC50 and that of the compound before are within 1.5-fold of each other.

Consider `Nc1c(-c2ccc(F)c3[nH]ncc23)c2cc(C3CC4(C3)CC(F)(F)C4)c3ncccc3c2[nH]c1=O` [Compound C166, 3-Amino-6-(2,2-difluorospiro[3,3]heptan-6-yl)-4-(7-fluoro-1H-indazol-4-yl)-1H-1,7-phenanthrolin-2-one], for which the IC50 stood at 2.9 nM. Compared with the last compound, the IC50 is about 2.4-fold lower.

As to `CC1(C)CC(c2cc3c(-c4ccc(F)c5[nH]ncc45)c(N)c(=O)[nH]c3c3cccnc23)C1` [Compound C167, 3-Amino-6-(3,3-dimethylcyclobutyl)-4-(7-fluoro-1H-indazol-4-yl)-1H-1,7-phenanthrolin-2-one], the IC50 was 46 nM. Compared with the last compound, the IC50 is about 16-fold higher.

`CC(c1cc2c(-c3ccc(F)c4[nH]ncc34)c(N)c(=O)[nH]c2c2cccnc12)C(F)(F)F` (centres unmarked) [Compound C168, 3-Amino-4-(7-fluoro-1H-indazol-4-yl)-6-(1,1,1-trifluoropropan-2-yl)-1H-1,7-phenanthrolin-2-one] registered an IC50 of 54 nM. This IC50 and that of the compound before are within 1.5-fold of each other.

`Nc1c(-c2ccc(F)c3[nH]ncc23)c2cc(C3CC4(CCC4)C3)c3ncccc3c2[nH]c1=O` [Compound C169, 3-Amino-4-(7-fluoro-1H-indazol-4-yl)-6-spiro[3,3]heptan-2-yl-1H-1,7-phenanthrolin-2-one] displayed an IC50 of 86 nM. This IC50 lies about 1.6-fold higher than the previous one.

In turn, `Nc1c(-c2ccc(F)c3[nH]ncc23)c2cc(CC(F)F)c3ncccc3c2[nH]c1=O` [Compound C170, 3-Amino-6-(2,2-difluoroethyl)-4-(7-fluoro-1H-indazol-4-yl)-1H-1,7-phenanthrolin-2-one] showed an IC50 of 3.3 nM.

For the compound `Nc1c(-c2ccc(F)c3[nH]ncc23)c2cc(CCC(F)F)c3ncccc3c2[nH]c1=O` [Compound C171, 3-Amino-6-(3,3-difluoropropyl)-4-(7-fluoro-1H-indazol-4-yl)-1H-1,7-phenanthrolin-2-one], the IC50 worked out at 2.2 nM.

With `CC(C)(C)C1CC(c2cc3c(-c4ccc(F)c5[nH]ncc45)c(N)c(=O)[nH]c3c3cccnc23)C1` (centres unmarked) [Compound C173, 3-Amino-6-(3-tert-butylcyclobutyl)-4-(7-fluoro-1H-indazol-4-yl)-1H-1,7-phenanthrolin-2-one], the IC50 stood at 95 nM. This IC50 is about 43-fold higher than that of the compound before.

`CC1(C)CC2(CC(c3cc4c(-c5ccc(F)c6[nH]ncc56)c(N)c(=O)[nH]c4c4cccnc34)C2)C1` [Compound C174, 3-Amino-6-(2,2-dimethylspiro[3,3]heptan-6-yl)-4-(7-fluoro-1H-indazol-4-yl)-1H-1,7-one] registered an IC50 of 140 nM.

Compound `Nc1c(-c2ccc(F)c3[nH]ncc23)c2cc(C3CC4(CC4)C3)c3ncccc3c2[nH]c1=O` [Compound C175, 3-Amino-4-(7-fluoro-1H-indazol-4-yl)-6-spiro[2.3]hexan-5-yl-1H-1,7-phenanthrolin-2-one] showed a concentration for half-maximal inhibition (IC50) of 16 nM.

For the compound `N#CC1CC(c2cc3c(-c4ccc(F)c5[nH]ncc45)c(N)c(=O)[nH]c3c3cccnc23)C1` (centres unmarked) [Compound C176, 3-[3-Amino-4-(7-fluoro-1H-indazol-4-yl)-2-oxo-1H-1,7-phenanthrolin-6-yl]cyclobutane-1-carbonitrile], the half-inhibitory concentration (IC50) is 2.1 nM.

Consider `N#CC1(Cc2cc3c(-c4ccc(F)c5[nH]ncc45)c(N)c(=O)[nH]c3c3cccnc23)CC1` [Compound C177, 1-[[3-Amino-4-(7-fluoro-1H-indazol-4-yl)-2-oxo-1H-1,7-phenanthrolin-6-yl]methyl]cyclopropane-1-carbonitrile], for which the IC50 was determined as 2.1 nM.

`N#C[C@H]1C[C@@H](c2cc3c(-c4ccc(F)c5[nH]ncc45)c(N)c(=O)[nH]c3c3cccnc32)C1` [Compound C178, (1s,3s)-3-[3-Amino-4-(7-fluoro-1H-indazol-4-yl)-2-oxo-1H-1,7-phenanthrolin-6-yl]cyclobutane-1-carbonitrile] returned an IC50 of 2.3 nM. The IC50 values of the last two compounds are within 1.5-fold of each other.

With `N#C[C@H]1C[C@H](c2cc3c(-c4ccc(F)c5[nH]ncc45)c(N)c(=O)[nH]c3c3cccnc32)C1` [Compound C179, (1r,3r)-3-[3-Amino-4-(7-fluoro-1H-indazol-4-yl)-2-oxo-1H-1,7-phenanthrolin-6-yl]cyclobutane-1-carbonitrile], the IC50 was 0.84 nM. This IC50 lies about 2.7-fold lower than the previous one.

In turn, `CC(C)(C)c1ccc2c(ccc3c(-c4ccc(F)c5[nH]ncc45)c(N)c(=O)[nH]c32)n1` [Compound C180, 3-Amino-8-tert-butyl-4-(7-fluoro-1H-indazol-4-yl)-1H-1,7-phenanthrolin-2-one] returned an IC50 of 41 nM.

The compound `Cc1ccc2c(n1)c(I)cc1c(-c3ccc(F)c4[nH]ncc34)c(N)c(=O)[nH]c12` [Compound C181, 3-Amino-4-(7-fluoro-1H-indazol-4-yl)-6-iodo-8-methyl-1H-1,7-phenanthrolin-2-one] yielded an IC50 of 23 nM.

In turn, `Cc1ccc2c(n1)c(C1CC1)cc1c(-c3ccc(F)c4[nH]ncc34)c(N)c(=O)[nH]c12` [Compound C182, 3-Amino-6-cyclopropyl-4-(7-fluoro-1H-indazol-4-yl)-8-methyl-1H-1,7-phenanthrolin-2-one] displayed an IC50 of 5.5 nM.

With `Cc1ccc2c(ccc3c(-c4ccc(F)c5[nH]ncc45)c(N)c(=O)[nH]c32)n1` [Compound C183, 3-Amino-4-(7-fluoro-1H-indazol-4-yl)-8-methyl-1H-1,7-phenanthrolin-2-one], the IC50 worked out at 110 nM.

As to `Nc1c(-c2ccc(F)c3[nH]ncc23)c2cc(C(F)(F)F)c3ncccc3c2[nH]c1=O` [Compound C187, 3-Amino-4-(7-fluoro-1H-indazol-4-yl)-6-(trifluoromethyl)-1H-1,7-phenanthrolin-2-one], the IC50 turned out to be 20 nM.

Turning to `Nc1c(-c2ccc(F)c3[nH]ncc23)c2cc(OC(F)(F)F)c3ncccc3c2[nH]c1=O` [Compound C188, 3-Amino-4-(7-fluoro-1H-indazol-4-yl)-6-(trifluoromethoxy)-1H-1,7-phenanthrolin-2-one], the half-inhibitory concentration (IC50) was 4.1 nM.

Take `Cc1cc2c(-c3ccc(F)c4[nH]ncc34)c(N)c(=O)[nH]c2c2cc(B(O)O)cnc12` [Compound C189, [3-Amino-4-(7-fluoro-1H-indazol-4-yl)-6-methyl-2-oxo-1H-1,7-phenanthrolin-9-yl]boronic acid]: the IC50 is 18 nM. Against the preceding compound, the IC50 is about 4.4-fold higher.

Compound `Nc1c(-c2cc(F)c(F)c3[nH]ncc23)c2cc(C3CC3)c3ncccc3c2[nH]c1=O` [Compound C191, 3-Amino-6-cyclopropyl-4-(6,7-difluoro-1H-indazol-4-yl)-1H-1,7-phenanthrolin-2-one] showed a half-inhibitory concentration (IC50) of 6 nM.

`CCc1cc2c(-c3cc(F)c(F)c4[nH]ncc34)c(N)c(=O)[nH]c2c2cccnc12` [Compound C192, 3-Amino-4-(6,7-difluoro-1H-indazol-4-yl)-6-ethyl-1H-1,7-phenanthrolin-2-one] gave an IC50 of 3.7 nM.

In turn, `CCOc1cc2c(-c3cc(F)c(Cl)c4[nH]ncc34)c(N)c(=O)[nH]c2c2cccnc12` [Compound C193, 3-Amino-4-(7-chloro-6-fluoro-1H-indazol-4-yl)-6-ethoxy-1H-1,7-phenanthrolin-2-one] came in with an IC50 of 1.7 nM.

`CC(C)Oc1cc2c(-c3cc(F)c(Cl)c4[nH]ncc34)c(N)c(=O)[nH]c2c2cccnc12` [Compound C194, 3-Amino-4-(7-chloro-6-fluoro-1H-indazol-4-yl)-6-propan-2-yloxy-1H-1,7-phenanthrolin-2-one] returned an IC50 of 1.6 nM.

`Cc1cc2c(-c3cc(F)c(Cl)c4[nH]ncc34)c(N)c(=O)[nH]c2c2cccnc12` [Compound C196, 3-Amino-4-(7-chloro-6-fluoro-1H-indazol-4-yl)-6-methyl-1H-1,7-phenanthrolin-2-one] showed an IC50 of 3.6 nM.

Take `Nc1c(-c2cc(F)c(F)c3[nH]ncc23)c2ccc3ncccc3c2[nH]c1=O` [Compound C197, 3-Amino-4-(6,7-difluoro-1H-indazol-4-yl)-1H-1,7-phenanthrolin-2-one]: the 50% inhibitory concentration (IC50) amounted to 20 nM.

`Nc1c(-c2cc(F)c(F)c3[nH]ncc23)c2cc(Cl)c3ncccc3c2[nH]c1=O` [Compound C198, 3-Amino-6-chloro-4-(6,7-difluoro-1H-indazol-4-yl)-1H-1,7-phenanthrolin-2-one] registered an IC50 of 3.1 nM.

`Nc1c(-c2cc(F)c(F)c3[nH]ncc23)c2cc(O)c3ncccc3c2[nH]c1=O` [Compound C199, 3-Amino-4-(6,7-difluoro-1H-indazol-4-yl)-6-hydroxy-1H-1,7-phenanthrolin-2-one] yielded an IC50 of 3.8 nM.

With `Nc1c(-c2cc(F)c(F)c3[nH]ncc23)c2cc(C3CCC3)c3ncccc3c2[nH]c1=O` [Compound C201, 3-Amino-6-cyclobutyl-4-(6,7-difluoro-1H-indazol-4-yl)-1H-1,7-phenanthrolin-2-one], the IC50 turned out to be 5.7 nM.

For the compound `Nc1c(-c2cc(F)c(F)c3[nH]ncc23)c2cc(C3CCCC3)c3ncccc3c2[nH]c1=O` [Compound C202, 3-Amino-6-cyclopentyl-4-(6,7-difluoro-1H-indazol-4-yl)-1H-1,7-phenanthrolin-2-one], the half-inhibitory concentration (IC50) was determined as 7.7 nM. This IC50 and that of the compound before are within 1.5-fold of each other.

Consider `CC(C)Cc1cc2c(-c3cc(F)c(F)c4[nH]ncc34)c(N)c(=O)[nH]c2c2cccnc12` [Compound C203, 3-Amino-4-(6,7-difluoro-1H-indazol-4-yl)-6-(2-methylpropyl)-1H-1,7-phenanthrolin-2-one], for which the IC50 worked out at 17 nM. Against the preceding compound, the IC50 is about 2.2-fold higher.

The compound `C=Cc1cc2c(-c3cc(F)c(F)c4[nH]ncc34)c(N)c(=O)[nH]c2c2cccnc12` [Compound C204, 3-Amino-4-(6,7-difluoro-1H-indazol-4-yl)-6-ethenyl-1H-1,7-phenanthrolin-2-one] gave a half-maximal inhibitory concentration (IC50) of 10 nM.

`Nc1c(-c2cc(F)c(F)c3[nH]ncc23)c2cc(OC(F)F)c3ncccc3c2[nH]c1=O` [Compound C205, 3-Amino-4-(6,7-difluoro-1H-indazol-4-yl)-6-(difluoromethoxy)-1H-1,7-phenanthrolin-2-one] registered an IC50 of 3.4 nM.
